This is an account of results in article PMC6874406 (Journal of photochemistry and photobiology. A, Chemistry, 2019).

Like-named read-outs stand apart in the source and are kept apart here.

In assay [1] the target is T1, human serum albumin (HSA) (Homo sapiens, UniProt P02768). The experiment in a line: fluorescence titration. The assay is classed as binding.
Assay [2] has as its target T1, human serum albumin (HSA). Briefly: fluorescence titration. Type of assay: binding. The source holds these as a separate data set.

T1 sequence (P02768 25-609): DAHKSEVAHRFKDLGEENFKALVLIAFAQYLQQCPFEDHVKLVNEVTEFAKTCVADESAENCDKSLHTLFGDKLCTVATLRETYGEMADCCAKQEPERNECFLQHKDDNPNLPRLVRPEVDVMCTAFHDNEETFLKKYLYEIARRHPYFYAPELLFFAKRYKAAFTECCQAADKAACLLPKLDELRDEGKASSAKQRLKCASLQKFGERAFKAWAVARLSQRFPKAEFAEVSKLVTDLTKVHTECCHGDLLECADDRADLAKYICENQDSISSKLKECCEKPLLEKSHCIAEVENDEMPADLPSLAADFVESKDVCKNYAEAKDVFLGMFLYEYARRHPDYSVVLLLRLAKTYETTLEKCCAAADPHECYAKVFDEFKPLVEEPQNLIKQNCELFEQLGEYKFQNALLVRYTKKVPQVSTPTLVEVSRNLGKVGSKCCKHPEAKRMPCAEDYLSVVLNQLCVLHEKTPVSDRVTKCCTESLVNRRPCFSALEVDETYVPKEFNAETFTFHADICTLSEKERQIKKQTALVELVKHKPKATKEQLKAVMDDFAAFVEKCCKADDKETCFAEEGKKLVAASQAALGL

`COc1cc(/C=C/C2=C(C#N)C(=C(C#N)C#N)OC2(C)C)cc(OC)c1O` [compound 1, (E)-2-(3-cyano-4-(4-hydroxy-3,5-dimethoxystyryl)-5,5-dimethylfuran-2(5H)-ylidene)malononitrile] gave a Kd in assay [1] of 6.67 µM. This lies in the single-digit micromolar range.

In turn, `CC1(C)OC(=C(C#N)C#N)C(C#N)=C1/C=C/c1ccc(O)cc1` [compound 2, fluorophore 2] had a Kd in assay [2] of 5.26 µM.
